Measured values: the NIST ThermoML archive (doi:10.1016/j.jct.2008.09.014)
Several values for one entry are separate records, joined by “and”; a condition that tells them apart may be missing. Equal entries are not always repeated.

Settings: Crystal; for vapor or sublimation pressure: Calculated from knudsen effusion weight loss

O=[N+]([O-])c1ccc2[nH]ccc2c1 [5-nitroindole]
Settings	vapor or sublimation pressure
353.15 K	9.42e-05 kPa and 9.3e-05 kPa
355.2 K	0.0001148 kPa and 0.0001117 kPa
357.18 K	0.0001368 kPa and 0.0001345 kPa and 0.000131 kPa
359.15 K	0.0001667 kPa and 0.0001723 kPa and 0.0001702 kPa
361.19 K	0.0001997 kPa and 0.000201 kPa
363.17 K	0.0002441 kPa and 0.0002364 kPa
365.16 K	0.0003138 kPa and 0.0003041 kPa and 0.0002935 kPa
367.19 K	0.0003798 kPa and 0.0003685 kPa and 0.0003544 kPa
369.17 K	0.0004448 kPa and 0.000439 kPa and 0.0004322 kPa
371.17 K	0.0005523 kPa and 0.0005458 kPa and 0.0005326 kPa
373.19 K	0.0006817 kPa and 0.0006526 kPa and 0.0006311 kPa
375.17 K	0.0008006 kPa and 0.0007692 kPa

O=[N+]([O-])c1ccc2c(c1)CCN2 [5-nitroindoline]
Settings	mass density [kg/m3]
298.15 K, 101.33 kPa, mass and volume measurement	1390

Settings	vapor or sublimation pressure
338.09 K	6.24e-05 kPa and 6.06e-05 kPa and 6.3e-05 kPa
340.12 K	7.74e-05 kPa and 7.36e-05 kPa and 7.65e-05 kPa
342.2 K	0.000101 kPa and 9.69e-05 kPa and 9.36e-05 kPa
344.08 K	0.0001236 kPa and 0.0001184 kPa and 0.0001211 kPa
346.1 K	0.0001521 kPa and 0.0001453 kPa and 0.0001435 kPa
348.19 K	0.0001876 kPa and 0.0001782 kPa and 0.0001803 kPa
350.1 K	0.000241 kPa and 0.0002364 kPa and 0.0002307 kPa
352.13 K	0.0002958 kPa and 0.0002905 kPa and 0.0002792 kPa
354.19 K	0.0003738 kPa and 0.0003438 kPa and 0.0003465 kPa
356.1 K	0.0004193 kPa and 0.0004189 kPa and 0.0004131 kPa
358.12 K	0.0005196 kPa and 0.0005153 kPa and 0.0005004 kPa
360.18 K	0.0006675 kPa and 0.0006261 kPa and 0.0006157 kPa
